According to patent publication US8293729B2 (Boehringer Ingelheim International GmbH, priority 2009, dated 2012):

What follows are molecules tested against T1, human GPR119 receptor (Homo sapiens, UniProt Q8TDV5, S329A/T327A) (assay: cAMP assay (LANCE cAMP-384) in HEK293 cells stably expressing mutant human GPR119 receptor). Conditions: HEK293, 20 min; at 10 μM; printed in EC50 column of the 36th table; read-out: stimulation in % at 10 μM.
T1 construct: N-terminal leader […]; expressed in transfected cells
T1 sequence (Q8TDV5 with tags, fused parts or gaps T327A/S329A): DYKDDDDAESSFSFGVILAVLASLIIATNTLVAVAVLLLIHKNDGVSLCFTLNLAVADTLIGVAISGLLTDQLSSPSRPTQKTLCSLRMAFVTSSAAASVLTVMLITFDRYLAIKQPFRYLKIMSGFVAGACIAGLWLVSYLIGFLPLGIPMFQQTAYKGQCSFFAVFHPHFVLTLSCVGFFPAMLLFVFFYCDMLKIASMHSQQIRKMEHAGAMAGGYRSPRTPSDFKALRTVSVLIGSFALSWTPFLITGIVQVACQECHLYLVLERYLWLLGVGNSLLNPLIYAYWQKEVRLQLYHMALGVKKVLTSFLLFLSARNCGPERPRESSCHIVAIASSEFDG
Format: cell-based
How it was run: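 HEK293 cells stably expressing human GPR119 (T327A/S329A, modified N-terminus), 1000 cells/well, exposed to compound for 20 min at 37° C. cAMP quantified by LANCE TR-FRET against a standard curve; EC50 from 12 points, 30 μM to 100 pM, or % stimulation at 10 μM.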

| SMILES | activation at 10 µM [%] |
| --- | --- |
| Cc1ccc(CN2CCC(ON=C3CCN(c4ccc(S(C)(=O)=O)cc4F)CC3)CC2)c(F)c1F [Example 66-48] | 99 |

Same assay, conditions: HEK293, 20 min; single concentration 10 μM; given where no EC50 value could be determined; read-out: % stimulation at 10 μM

| SMILES | activation at 10 µM [%] |
| --- | --- |
| Cc1cccnc1N1CCC(=NOC2CCN(C(=O)OC(C)C)CC2)CC1 [Example 2-7] | 55 |
| COc1ncc(-c2cc(F)c(N3CCC(=NOC4CCN(C(=O)OC(C)C)CC4)CC3)cc2F)c(OC)n1 [Example 27-31] | 70 |

Same assay, conditions: cAMP accumulation, HEK293 cells stably expressing mutant human GPR119; read-out: EC50

| SMILES | EC50 [nM] |
| --- | --- |
| CC(C)OC(=O)N1CCC(ON=C2CCN(c3ncc4c(n3)CCN(S(C)(=O)=O)C4)CC2)CC1 [Example 59b, 4-[1-(6-Methanesulfonyl-5,6,7,8-tetrahydro-pyrido[4,3-d]pyrimidin-2-yl)-piperidin-4-ylideneaminooxy]-piperidine-1-carboxylic acid isopropyl ester] | 328 |
| CC(C)OC(=O)N1CCC(ON=C2CCN(c3ccc(F)c(F)n3)CC2)CC1 [Example 2-71] | 2590 |
| CC(C)OC(=O)N1CCC(ON=C2CCN(c3cc(F)c(-n4cncn4)cc3F)CC2)CC1 [Example 22-4] | 33 |
| CC(C)OC(=O)N1CCC(ON=C2CCN(c3cc(F)c(CNCCC(=O)O)cc3F)CC2)CC1 [Example 7-1, 4-(1-{4-[(2-Carboxy-ethylamino)-methyl]-2,5-difluoro-phenyl}-piperidin-4-ylideneaminooxy)-piperidine-1-carboxylic acid isopropyl ester] | 1150 |
| Cc1ccc(-c2cc(F)c(N3CCC(=NOC4CCN(C(=O)OC(C)C)CC4)CC3)cc2F)cn1 [Example 27-30] | 435 |
| CC(C)OC(=O)N1CCC(ON=C2CCN(c3nc(Cl)ncc3F)CC2)CC1 [Example 2-73] | 110 |
| CC(C)OC(=O)N1CCC(ON=C2CCN(c3cc(F)c(COC(=O)[C@@H](NC(=O)OC(C)(C)C)C(C)C)cc3F)CC2)CC1 [Example 42-1, 4-{1-[4-((S)-2-tert-Butoxycarbonylamino-3-methyl-butyryloxymethyl)-2,5-difluoro-phenyl]-piperidin-4-ylideneaminooxy}-piperidine-1-carboxylic acid isopropyl ester] | 928 |
| CC(C)OC(=O)N1CCC(ON=C2CCN(c3ccc(I)cn3)CC2)CC1 [Example 2-12] | 2360 |
| CC(C)OC(=O)N1CCC(ON=C2CCN(c3cc(F)c(CS(C)(=O)=O)cc3F)CC2)CC1 [Example 13-1, 4-[1-(2,5-Difluoro-4-methanesulfonylmethyl-phenyl)-piperidin-4-ylideneaminooxy]-piperidine-1-carboxylic acid isopropyl ester] | 30 |
| CC(C)OC(=O)N1CCC(ON=C2CCN(c3ccc(S(N)(=O)=O)cc3F)CC2)CC1 [Example 2-36] | 130 |
| CC(C)OC(=O)N1CCC(ON=C2CCN(c3nc(Cl)c(CO)nc3Cl)CC2)CC1 [Example 56-1, 4-[1-(3,6-Dichloro-5-hydroxymethyl-pyrazin-2-yl)-piperidin-4-ylideneaminooxy]-piperidine-1-carboxylic acid isopropyl ester] | 35 |
| CC(C)OC(=O)N1CCC(ON=C2CCN(c3ccc(CO)cc3)CC2)CC1 [Example 2-53] | > 10000 |
| CC(C)OC(=O)N1CCC(ON=C2CCN(c3nncs3)CC2)CC1 [Example 2-14] | > 10000 |
| CC(C)OC(=O)N1CCC(ON=C2CCN(c3cc(F)c(-c4cscn4)cc3F)CC2)CC1 [Example 27-19] | 3080 |
| CC(C)OC(=O)N1CCC(ON=C2CCN(c3cc(F)c(-n4cccn4)cc3F)CC2)CC1 [Example 22-3] | 62 |

Same assay, conditions: the 15th table; read-out: EC50

| SMILES | EC50 [nM] |
| --- | --- |
| CC(C)OC(=O)N1CCC(ON=C2CCN(c3cc(F)c(C(=O)NCCCN)cc3F)CC2)CC1 [Example 29-7] | 42 |
| CC(C)OC(=O)N1CCC(ON=C2CCN(c3cc(F)c(C(=O)N4CCC[C@H]4CN)cc3F)CC2)CC1 [Example 29-58] | 189 |
| COCCNC(=O)c1cc(F)c(N2CCC(=NOC3CCN(C(=O)OC(C)C)CC3)CC2)cc1F [Example 29-12] | 12 |

Same assay, conditions: the 19th table; unit inferred; read-out: EC 50

| SMILES | EC50 [nM] |
| --- | --- |
| CCc1cnc(N2CCC(ON=C3CCN(c4cc(F)c(C(=O)N5C[C@@H]6C[C@H]5CN6)cc4F)CC3)CC2)nc1 [Example 29-115] | 2010 |
| CCc1cnc(N2CCC(ON=C3CCN(c4cc(F)c(C(=O)N5CCC(CN)CC5)cc4F)CC3)CC2)nc1 [Example 29-125] | 168 |
| CCc1cnc(N2CCC(ON=C3CCN(c4cc(F)c(C(=O)NCC5CCNC5)cc4F)CC3)CC2)nc1 (stereo not drawn) [Example 29-139] | 92 |
| CCc1cnc(N2CCC(ON=C3CCN(c4cc(F)c(C(=O)N5CCC[C@H]5CNC)cc4F)CC3)CC2)nc1 [Example 29-134] | 437 |
| CCc1cnc(N2CCC(ON=C3CCN(c4cc(F)c(C(=O)NCC[C@H](N)C(=O)O)cc4F)CC3)CC2)nc1 [Example 29-117] | 745 |
| CCc1cnc(N2CCC(ON=C3CCN(c4cc(F)c(C(=O)N5CCCCC5CNC)cc4F)CC3)CC2)nc1 (stereo not drawn) [Example 29-136] | 120 |
| CCc1cnc(N2CCC(ON=C3CCN(c4cc(F)c(C(=O)NCC5CCCN5C)cc4F)CC3)CC2)nc1 (stereo not drawn) [Example 29-137] | 212 |

Same assay, conditions: the 29th table; read-out: EC50

| SMILES | EC50 [nM] |
| --- | --- |
| CC(C)OC(=O)N1CCC(ON=C2CCN(c3ccc(CO)cc3F)CC2)CC1 [Example 52-3] | 128 |

Same assay, conditions: the 30th table; read-out: EC50

| SMILES | EC50 [nM] |
| --- | --- |
| Cc1cnn(Cc2cnc(N3CCC(=NOC4CCN(C(=O)OC(C)C)CC4)CC3)c(F)c2)c1 [Example 54-1, 4-[3′-Fluoro-5′-(4-methyl-pyrazol-1-ylmethyl)-2,3,5,6-tetrahydro-[1,2]bipyridinyl-4-ylideneaminooxy]-piperidine-1-carboxylic acid isopropyl ester] | 445 |

Same assay, conditions: the 31st table; read-out: EC50

| SMILES | EC50 [nM] |
| --- | --- |
| CC(C)OC(=O)N1CCC(ON=C2CN(c3ccc(S(C)(=O)=O)cc3F)C2)CC1 [Example 61-3] | 161 |

Same assay, conditions: the 32nd table; read-out: EC50

| SMILES | EC50 [nM] |
| --- | --- |
| CS(=O)(=O)c1ccc(N2CCC(=NOC3CCN(c4ncc(Br)cc4F)CC3)CC2)c(F)c1 [Example 63-25] | 195 |

Same assay, conditions: the 33rd table; read-out: EC50

| SMILES | EC50 [nM] |
| --- | --- |
| CS(=O)(=O)c1ccc(N2CCC(=NOC3CCN(C(=O)OC4CNC4)CC3)CC2)c(F)c1 [Example 64-33] | > 10000 |
| CN(C)CCCOC(=O)N1CCC(ON=C2CCN(c3ccc(S(C)(=O)=O)cc3F)CC2)CC1 [Example 64-15] | > 10000 |
| COC(=O)[C@@H](C)COC(=O)N1CCC(ON=C2CCN(c3ccc(S(C)(=O)=O)cc3F)CC2)CC1 [Example 64-24] | 708 |
| CC1CC1COC(=O)N1CCC(ON=C2CCN(c3ccc(S(C)(=O)=O)cc3F)CC2)CC1 (stereo not drawn) [Example 64-8] | 32 |
| COC(=O)[C@@H](C)COC(=O)N1CCC(ON=C2CCN(c3ccc(S(C)(=O)=O)cc3F)CC2)CC1 [Example 64-23] | 928 |

Same assay, conditions: the 34th table, compounds 65-1 to 65-24; read-out: EC50

| SMILES | EC50 [nM] |
| --- | --- |
| CS(=O)(=O)c1ccc(N2CCC(=NOC3CCN(C(=O)Oc4ccccc4)CC3)CC2)c(F)c1 [Example 65-12] | 57 |
| CS(=O)(=O)c1ccc(N2CCC(=NOC3CCN(C(=O)OCc4ccccc4)CC3)CC2)c(F)c1 [Example 65-14] | 153 |

Same assay, conditions: the 36th table, compounds 66-1 to 66-51; read-out: EC50

| SMILES | EC50 [nM] |
| --- | --- |
| CS(=O)(=O)c1ccc(N2CCC(=NOC3CCN(Cc4ccncc4)CC3)CC2)c(F)c1 [Example 66-4] | > 10000 |
| Cc1nc(CN2CCC(ON=C3CCN(c4ccc(S(C)(=O)=O)cc4F)CC3)CC2)cs1 [Example 66-14] | > 10000 |
| CS(=O)(=O)c1ccc(N2CCC(=NOC3CCN(Cc4ccccc4)CC3)CC2)c(F)c1 [Example 66-15] | 982 |
| CS(=O)(=O)c1ccc(N2CCC(=NOC3CCN(Cc4ccc(C(F)(F)F)cc4)CC3)CC2)c(F)c1 [Example 66-31] | 354 |

Same assay, conditions: the 37th table, compounds 66-52 to 66-64; read-out: EC50

| SMILES | EC50 [nM] |
| --- | --- |
| CCCc1ccc(CN2CCC(ON=C3CCN(c4cc(F)c(S(C)(=O)=O)cc4F)CC3)CC2)cc1 [Example 66-53] | 35 |

Same assay, conditions: the 38th table, compounds 66-65 to 66-72; read-out: EC50

| SMILES | EC50 [nM] |
| --- | --- |
| CCCc1ccc(CN2CCC(ON=C3CCN(c4cc(F)c(C(=O)NC)cc4F)CC3)CC2)cc1 [Example 66-72] | 109 |

Same assay, conditions: the 41st table, compounds 73-1, 73-2; unit inferred; read-out: EC50

| SMILES | EC50 [nM] |
| --- | --- |
| CS(=O)(=O)c1ccc(N2CCC(=NOC3CCN(C(=O)N4CCCCC4)CC3)CC2)c(F)c1 [Example 73-1, 1-(2-FLUORO-4-METHANESULFONYL-PHENYL)-PIPERIDIN-4-ONE O-[1-(PIPERIDINE-1-CARBONYL)-PIPERIDIN-4-YL]-OXIME] | 425 |

Same assay, conditions: the 43rd table, compounds 75-1 to 75-38; read-out: EC50

| SMILES | EC50 [nM] |
| --- | --- |
| CC(C)OC(=O)N1CCC(ON=C2CCN(c3cc(F)c(CC(=O)N4CCCCC4CN(C)C)cc3F)CC2)CC1 (stereo not drawn) [Example 75-36] | 322 |
| CC(C)OC(=O)N1CCC(ON=C2CCN(c3cc(F)c(CC(=O)N4CCC(CN(C)C)CC4)cc3F)CC2)CC1 [Example 75-38] | 92 |
| CC(C)OC(=O)N1CCC(ON=C2CCN(c3cc(F)c(CC(=O)NC[C@H]4CCCN4)cc3F)CC2)CC1 [Example 75-11] | 161 |

Same assay, conditions: the 44th table, compounds 77-1 to 77-14; read-out: EC50

| SMILES | EC50 [nM] |
| --- | --- |
| CCc1cnc(N2CCC(ON=C3CCN(c4cc(F)c(CC(=O)N5CC[C@H](CN)C5)cc4F)CC3)CC2)nc1 [Example 77-9] | 8 |
| CCc1cnc(N2CCC(ON=C3CCN(c4cc(F)c(CC(=O)NC5CCN(C)CC5)cc4F)CC3)CC2)nc1 [Example 77-1, 2-(4-{4-[1-(5-ethyl-pyrimidin-2-yl)-piperidin-4-yloxyimino]-piperidin-1-yl}-2,5-difluoro-phenyl)-N-(1-methyl-piperidin-4-yl)-acetamide] | 76 |
